Entries after “also recorded” stand apart in the source; their conditions may differ.
Experiments:
[1] = test system: RGCs; experiment: RGC synapse assay: synaptogenic activity (co-localized synaptotagmin/PSD-95 puncta); format: cell-based, rat; conditions: for number of co-localized synaptic puncta/cell (synapse number): purified TSPs, 8 nM each, vs RGCs alone (Control)
Protocol: (§1) RGCs were purified by sequential immunopanning to greater than 99.5% purity from P5 Sprague-Dawley rats (Simonsen Labs, Gilroy, Calif.), as previously described (Barres et. al. (1988) Neuron 9, 791). Approximately 30,000 RGCs were cultured per well in 24-well plates (Falcon) on glass (Assistant) or Aclar 22C (Allied Signal) coverslips coated with poly-D-lysine (10 μg/ml) followed by laminin (2 μg/ml). RGCs were cultured in 600 μl of serum-free medium, modified from Bottenstein and Sato (1979), containing Neurobasal (Gibco), bovine serum albumin, selenium, putrescine, triiodo-thyronine, transferrin, progesterone, pyruvate (1 mM), glutamine (2 mM), CNTF (10 ng/ml), BDNF (50 ng/ml), insulin (5 μg/ml), and forskolin (10 μM). Recombinant human BDNF and CNTF were generously provided by Regeneron Pharmaceuticals.
(§2) Purified human platelet TSP1 was from either Sigma or Haematologic Technologies with similar results. Recombinant TSP2 was purified from serum-free medium conditioned by baculovirus-infected insect cells expressing mouse TSP2. Since purified TSP1 is readily available, we used this as the source of TSP in our experiments unless otherwise stated TSPs were used at a concentration of 5 μg/ml unless otherwise specified. RCGs were cultured for 4 days to allow robust process outgrowth and then cultured with TSPs for an additional 6 days. All other reagents were obtained from Sigma.
For preparation of ACM, confluent cultures of astrocytes in 10 cm dishes were washed 3× in PBS and fed with 10 mls RGC medium (without CNTF, BDNF or forskolin). ACM was harvested after 4-6 days of conditioning, filtered through a 0.2 μm syringe filter and concentrated 10× through a 5 KD molecular weight cut-off centrifuge concentrator (Millipore), unless otherwise indicated. ACM was used at a final concentration of 5× unless otherwise indicated. […]
For synapse quantification, cultures were fixed for 7 min in 4% paraformaldehyde (PFA), washed 3× in phosphate buffered saline (PBS) and blocked in 100 μL of blocking buffer (50% Antibody Buffer (0.5% bovine serum albumin, 0.5% Triton X-100, 30 mM NaPO4, 750 mM NaCl, 5% normal goat serum, and 0.4% NaN3, pH 7.4), 50% goat serum (NGS), 0.1% Triton-X) for 30 min. […]
(§3) Mounted coverslips were imaged using Nikon Diaphot and Eclipse epifluorescence microscopes (Nikon). Healthy cells that were at least 2 cell diameters from their nearest neighbor were identified and selected at random by eye using DAPI fluorescence. 8-bit digital images of the fluorescence emission at both 594 nm and 488 nm were recorded for each selected cell using a cooled monochrome CCD camera and SPOT image capture software (Diagnostic Instruments, Inc). […]

[2] = test system: naive rats; experiment: TSP4-induced behavioral hypersensitivity in naive rats (paw withdrawal threshold, von Frey); format: in vivo, rat
[3] = molecular target: T1, TSP4 (Rattus norvegicus, UniProt P49744); experiment: Reversal of established tactile allodynia in L5/6 spinal nerve ligated rats (von Frey PWT); format: in vivo; conditions: 50 ug/day intrathecal for four days; for reversal of established allodynia in the injury (ipsilateral) side: 5 weeks post injury
T1 construct: elevated TSP4 protein may play a critical role in peripheral nerve injury-induced allodynia at the spinal level; from tissue; host or cells: spinal cord (L5/6) of live male Sprague Dawley rats, intrathecal injection
Protocol: To determine if TSP4 plays a role in mediating neuropathic pain processing at the spinal cord level, the effect of intrathecal TSP4 antisera in reversing established allodynia in spinal nerve ligated rats was examined. Intrathecal bolus injection of active TSP4 antibody (chicken polyclonal, from Dr. Frank Zaucke at University of Cologne, Cologne, Germany) was administered into left L5/6 spinal nerve ligated rats 2-weeks post injury, when the injured rats had fully developed allodynia. […] Neither the antisense nor mismatch oligodeoxynucleotides altered the behavioral thresholds at the non-injury side. […] Male Harlan Sprague Dawley rats (100-150 g, Harlan Industries Indianapolis, Ind.) were housed in separate cages, exposed to a 12/12 h day/night cycle and allowed free access to food and water. Peripheral nerve injury was induced in isoflurane-anesthetized animals with tight ligation of the left L5/6 spinal nerves between DRG and the beginning of the spinal nerve (Kim and Chung, Pain 50 50:355-363, 1992). To access tactile allodynia, paw withdrawal threshold (PWT) was determined using the up-down method of Dixon (Dixon, Ann. Rev. Pharma. & Toxico. 20:441-462, 1980) with von Frey filaments (Stoelting, Wood Dale, Ill., USA) as described previously (Chaplan et al., J. Neuros. Methods 53:55-63, 1994). Briefly, animals were allowed to acclimate for 30 min in a clear plastic cubicle with a wire-mesh base. A 2 g calibrated filament was first applied to the left hindpaw plantar surface with a pressure causing the filament to bend. If no paw lifting was detected after 5 s the next filament with increasing weight was used. If a paw lifting was observed, the next weaker filament was used. […] Neurosci. 21:1868-75, 2001). […] Rn014934317, Applied Biosystems), and is specific to the TSP 4 mRNA. Mismatch oligodeoxynucleotides, which contain the same number of nucleotides but in a random order (not complementary to any particular region of TSP4 mRNA), were used as controls. […] Genbank accession #: X89963) Oligodeoxynucleotides: These antisense and mismatch sequences were not complementary to any sequences of other rat genes as indicated by BLAST search results in rat genome database. It had been shown that oligodeoxynucleotides with phosphorothioate modification have increased potential for crossing lipid bilayers, and reduce nuclease cleavage (Crooke, et al., Ann. Rev. Pharmacology. & Toxicology, 1996).

[4] = test system: RGCs; experiment: Inhibition of TSP-, astrocyte/ACM- or Hevin-induced synapse formation in RGC cultures; format: cell-based, rat
Protocol: as §1, §2
For preparation of ACM, confluent cultures of astrocytes in 10 cm dishes were washed 3× in PBS and fed with 10 mls RGC medium (without CNTF, BDNF or forskolin). ACM was harvested after 4-6 days of conditioning, filtered through a 0.2 μm syringe filter and concentrated 10× through a 5 KD molecular weight cut-off centrifuge concentrator (Millipore), unless otherwise indicated. ACM was used at a final concentration of 5× unless otherwise indicated. RCGs were cultured for 4 days to allow robust process outgrowth and then cultured with ACM or an astrocyte-feeding layer for an additional 6 days.
For synapse quantification, cultures were fixed for 7 min in 4% paraformaldehyde (PFA), washed 3× in phosphate buffered saline (PBS) and blocked in 100 μL of blocking buffer (50% Antibody Buffer (0.5% bovine serum albumin, 0.5% Triton X-100, 30 mM NaPO4, 750 mM NaCl, 5% normal goat serum, and 0.4% NaN3, pH 7.4), 50% goat serum (NGS), 0.1% Triton-X) for 30 min. After blocking, cover slips were washed 3× in PBS and 100 μL of primary antibody solution was added to each cover slip, consisting of rabbit anti-synaptotagmin (cytosolic domain, Synaptic Systems) and mouse anti-PSD-95 (6G6-1C9 clone, Affinity Bio Reagents) diluted 1:500 in antibody buffer. Coverslips were incubated overnight at 4° C., washed 3× in PBS, and incubated with 100 μL of secondary antibody solution containing Alexa-594 conjugated goat anti-rabbit and Alexa-488 conjugated goat anti-mouse (Molecular Probes) diluted 1:1000 in antibody buffer. Following incubation for 2 h at room temperature, coverslips were washed five times in PBS and mounted in Vectashield mounting medium with DAPI (Vector Laboratories Inc) on glass slides (VWR Scientific). For presynaptic activity assay, rabbit synaptotagmin antiserum was generated by immunization with a peptide corresponding to the N-terminal luminal portion of synaptotagmin. This serum was added at 1:500 to live cultures and incubated for 6 hours. Cells were then washed 3× in DPSB, fixed and stained as above, except for the omission of synaptotagmin antibody from the primary antibody solution.
as §3

T1 sequence (P49744 43-980): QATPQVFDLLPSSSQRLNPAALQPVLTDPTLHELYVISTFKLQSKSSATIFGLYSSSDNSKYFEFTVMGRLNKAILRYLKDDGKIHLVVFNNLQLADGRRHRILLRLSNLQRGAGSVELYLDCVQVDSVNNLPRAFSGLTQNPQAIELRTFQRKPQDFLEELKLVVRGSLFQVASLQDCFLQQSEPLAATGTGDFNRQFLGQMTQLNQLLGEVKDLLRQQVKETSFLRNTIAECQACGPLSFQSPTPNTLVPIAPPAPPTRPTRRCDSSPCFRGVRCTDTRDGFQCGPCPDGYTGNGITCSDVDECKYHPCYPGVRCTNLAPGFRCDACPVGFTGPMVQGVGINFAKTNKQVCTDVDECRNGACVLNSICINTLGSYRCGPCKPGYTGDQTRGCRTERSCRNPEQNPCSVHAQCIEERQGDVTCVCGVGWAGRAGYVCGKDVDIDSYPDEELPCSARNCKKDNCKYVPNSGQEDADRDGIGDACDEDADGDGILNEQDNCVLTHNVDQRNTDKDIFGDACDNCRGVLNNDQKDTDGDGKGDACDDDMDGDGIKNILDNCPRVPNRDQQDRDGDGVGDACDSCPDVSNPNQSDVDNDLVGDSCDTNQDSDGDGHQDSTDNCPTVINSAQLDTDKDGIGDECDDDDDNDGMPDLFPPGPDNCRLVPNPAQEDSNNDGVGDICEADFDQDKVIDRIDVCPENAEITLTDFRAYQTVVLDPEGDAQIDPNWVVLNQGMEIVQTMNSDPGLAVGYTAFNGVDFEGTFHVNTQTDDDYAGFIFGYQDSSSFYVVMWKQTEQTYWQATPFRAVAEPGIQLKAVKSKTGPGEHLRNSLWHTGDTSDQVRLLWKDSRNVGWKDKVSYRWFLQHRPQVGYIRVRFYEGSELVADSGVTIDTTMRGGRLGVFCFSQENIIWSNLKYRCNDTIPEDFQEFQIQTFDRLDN

**Q.** How did the “number of co-localized synaptic puncta/cell (synapse number)” value [1] turn out when “TSP4: recombinant purified pentameric thrombospondin 4” was run?
**A.** significantly increased the number of co-localized synaptic puncta/cell; also recorded: increased synaptic puncta numbers to the same extent as either astrocytes or TSP1

**Q.** And the “duration of behavioral hypersensitivity” value ([2]; intrathecal bolus)?
**A.** over a week

**Q.** And the “reversal time post the peak effect time” value ([2]; intrathecal bolus)?
**A.** about five days

**Q.** And the “time of peak effect post injection” value ([2]; intrathecal bolus)?
**A.** 2 to 4 days

**Q.** And the “hindpaw withdrawal thresholds to von Frey filament stimulation” value ([2]; intrathecal bolus injection of active protein into L5/6 spinal cord segments)?
**A.** caused a gradual reduction in their hindpaw withdrawal thresholds; also recorded: induced behavioral hypersensitivity in a dose-dependent and reversible manner

**Q.** With “TSP1: purified human platelet TSP1, trimeric thrombospondin” as the molecule, how does the “number of co-localized synaptic puncta/cell (synapse number)” value [1] read?
**A.** significantly increased the number of co-localized synaptic puncta/cell; also recorded: increased the number of synapses formed by RGCs significantly

**Q.** Which results are given for “5′ CCATCATTGTTGCTATCTTCC 3′ (DNA, backbone and methylation of C not given here; further chemistry not fully specified) [Antisense #2]”?
**A.** duration of antisense effects after the last injection [3]: 3 days; onset time of antisense effects [3]: 3 days; time of peak antisense effect [3]: one day after the 4-day treatment; reversal of established allodynia in the injury (ipsilateral) side [3]: caused a complete reversal of established allodynia; reversal of established allodynia in the injury (ipsilateral) side ([3]; listed as TSP4 antisense oligonucleotide #2): caused a complete reversal of established allodynia in the injury side

**Q.** Which “effect on SD2/TSP-induced synapse formation” value ([4]; 1 mM (high concentrations)) does the source give for `NCCCC(=O)O` [GABA, γ-aminobutyric acid] here?
**A.** blocked TSP induced synapse formation; also recorded: inhibitory

**Q.** And the “effect on synapse numbers induced by SD2” value ([4]; 10 and 100 μM)?
**A.** did not decrease the synapse numbers

**Q.** Which “number of co-localized synaptic puncta/cell” value ([1]; culture supernatant of Cos7 cells overexpressing TSP3, vs supernatant of empty-vector Cos7 cells) does the source give for “TSP3: mouse TSP3 overexpressed in Cos7 cells; conditioned media used as source” here?
**A.** significantly increased the number of co-localized synaptic puncta/cell; also recorded: increased the number of synaptic puncta to the same extent as astrocytes

**Q.** How did the “reversal of established allodynia in the injury (ipsilateral) side” value [3] turn out when “5′ GGCGTAATCATGGTCATACG 3′ (DNA, backbone and methylation of C not given here; further chemistry not fully specified) [Antisense #1]” was run?
**A.** had some effects in allodynia reversal

B1: Hevin: another astrocyte secreted synaptogenic protein (protein, UniProt Q14515 17-664, looked up)
SPARC-like protein 1: IPTNARLLSDHSKPTAETVAPDNTAIPSLRAEAEENEKETAVSTEDDSHHKAEKSSVLKSKEESHEQSAEQGKSSSQELGLKDQEDSDGHLSVNLEYAPTEGTLDIKEDMSEPQEKKLSENTDFLAPGVSSFTDSNQQESITKREENQEQPRNYSHHQLNRSSKHSQGLRDQGNQEQDPNISNGEEEEEKEPGEVGTHNDNQERKTELPREHANSKQEEDNTQSDDILEESDQPTQVSKMQEDEFDQGNQEQEDNSNAEMEEENASNVNKHIQETEWQSQEGKTGLEAISNHKETEEKTVSEALLMEPTDDGNTTPRNHGVDDDGDDDGDDGGTDGPRHSASDDYFIPSQAFLEAERAQSIAYHLKIEEQREKVHENENIGTTEPGEHQEAKKAENSSNEEETSSEGNMRVHAVDSCMSFQCKRGHICKADQQGKPHCVCQDPVTCPPTKPLDQVCGTDNQTYASSCHLFATKCRLEGTKKGHQLQLDYFGACKSIPTCTDFEVIQFPLRMRDWLKNILMQLYEANSEHAGYLNEKQRNKVKKIYLDEKRLLAGDHPIDLLLRDFKKNYHMYVYPVHWQFSELDQHPMDRVLTHSELAPLRASLVPMEHCITRFFEECDPNKDKHITLKEWGHCFGIKEEDIDENLLF
**Q.** With B1 as the molecule, how does the “number of synapses formed” value ([1]; 3 DIV RGCs treated 9 days, TSP2 EGF-like domains 20 nM, Hevin 30 nM, vs RGCs alone) read?
**A.** increased the number of synapses formed significantly

— US8491897B2, “Treatment of neuropathic pain using anti-thrombospondin antibodies” (The Board of Trustees of the Leland Stanford Junior …, priority 2007, dated 2013)
